Patent US11767344B2, “Pharmaceutically acceptable salts of polypeptides and methods of inhibiting the interaction between psd-95 and n-methyl-d-aspartic acid receptor (nmdar)” (BIOCELLS (BEIJING) BIOTECH CO., LTD., priority 2017, dated 2023)
“Also recorded” adds a separate entry of the source.

Columns and labels:
PDZ1/2 domain [1] = target: T1, PDZ1/2 domain (Homo sapiens, UniProt P78352)
PDZ1/2 domain [2] = target: T1, PDZ1/2 domain; details: His beads, SDS-PAGE of eluate, FIG. 1
PC12 cells = details: 5 μM, 24 hours

T1 sequence (P78352 61-249 limits assumed): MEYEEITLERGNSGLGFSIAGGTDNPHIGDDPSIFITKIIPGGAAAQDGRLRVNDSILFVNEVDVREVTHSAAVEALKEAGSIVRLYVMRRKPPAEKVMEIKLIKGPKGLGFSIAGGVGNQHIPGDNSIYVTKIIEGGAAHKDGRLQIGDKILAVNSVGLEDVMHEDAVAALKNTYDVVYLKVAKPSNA

| SMILES | interaction with the PDZ1/2 domain as compared with control chimeric peptide NA-1 (PDZ1/2 domain [1]) | binding to PDZ1/2 domain in pull-down assay (PDZ1/2 domain [2]) | cytotoxicity (cell viability) (PC12 cells) |
| --- | --- | --- | --- |
| CC[C@H](C)[C@H](NC(=O)[C@H](CCC(=O)O)NC(=O)[C@@H](NC(=O)[C@H](CC(=O)O)NC(=O)[C@H](CC(C)C)NC(=O)[C@H](CC(C)C)NC(=O)[C@H](CCCCN)NC(=O)[C@H](CCC(=O)O)NC(=O)[C@H](Cc1ccc(O)cc1)NC(=O)[C@H](CCCNC(=N)N)NC(=O)[C@H](CCCNC(=N)N)NC(=O)[C@H](CCCNC(=N)N)NC(=O)[C@H](CCC(N)=O)NC(=O)[C@H](CCCNC(=N)N)NC(=O)[C@H](CCCNC(=N)N)NC(=O)[C@H](CCCCN)NC(=O)[C@H](CCCCN)NC(=O)[C@H](CCCNC(=N)N)NC(=O)CNC(=O)[C@@H](N)Cc1ccc(O)cc1)[C@@H](C)O)C(=O)O [P5] | interacted more strongly | can bind to the PDZ1/2 domain; also recorded: capable of binding to PDZ1/2 domain | – |
| CC[C@H](C)[C@H](NC(=O)[C@H](CCC(=O)O)NC(=O)[C@@H](NC(=O)[C@H](CC(=O)O)NC(=O)[C@H](CC(C)C)NC(=O)[C@H](CC(C)C)NC(=O)[C@H](CCCCN)NC(=O)[C@H](CCC(=O)O)NC(=O)[C@H](Cc1ccc(O)cc1)NC(=O)[C@H](CCCNC(=N)N)NC(=O)[C@H](CCCNC(=N)N)NC(=O)[C@H](CCCNC(=N)N)NC(=O)[C@H](CCC(N)=O)NC(=O)[C@H](CCCNC(=N)N)NC(=O)[C@H](CCCNC(=N)N)NC(=O)[C@H](CCCCN)NC(=O)[C@H](CCCCN)NC(=O)[C@H](CCCNC(=N)N)NC(=O)CNC(=O)[C@@H](N)Cc1ccc(O)cc1)[C@@H](C)O)C(=O)O [P5-Ac] | – | – | no significant cytotoxicity |
